Results as given in ChEMBL document CHEMBL1201862, “PubChem BioAssay data set” (2004).
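Compound exposure: 48 hours, 5 concentrations, 96-well plates. Abbreviation: GI50, concentration required for 50% inhibition of growth.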 The source made the active and inactive calls. Rule as the data show it: active = GI50 up to about 1.1 µM and inactive = higher.

Legend:
Test in all cases: growth of human tumour cells (NCI), 48 h
CAKI-1 = test system: CAKI-1
HCC 2998 = test system: HCC 2998
HL-60 = test system: HL-60
K562 = test system: K562
LOX IMVI = test system: LOX IMVI
MDA-MB-231 = test system: MDA-MB-231
MDA-MB-435 = test system: MDA-MB-435
MDA-N = test system: MDA-N
NCI-H226 = test system: NCI-H226
NCI-H23 = test system: NCI-H23
NCI/ADR-RES = test system: NCI/ADR-RES
OVCAR-4 = test system: OVCAR-4
OVCAR-5 = test system: OVCAR-5
SF-268 = test system: SF-268
SF-539 = test system: SF-539
SNB-19 = test system: SNB-19
SR = test system: SR
UACC-257 = test system: UACC-257
UO-31 = test system: UO-31
SNB-75 = test system: SNB-75

Measured: GI50

C[N+](C)(C)/N=C\c1ccc(O)c(O)c1
inactive: CAKI-1 > 100 µM | HCC 2998 > 100 µM | HL-60 > 100 µM | K562 > 100 µM | LOX IMVI > 100 µM | MDA-MB-231 > 100 µM | MDA-MB-435 > 100 µM | MDA-N > 100 µM | NCI-H226 > 100 µM | NCI-H23 > 100 µM | NCI/ADR-RES > 100 µM | OVCAR-4 > 100 µM | OVCAR-5 > 100 µM | SF-268 > 100 µM | SF-539 > 100 µM | SNB-19 > 100 µM | SR > 100 µM | UACC-257 > 100 µM | UO-31 > 100 µM

C=C(C)C1Cc2c(cc(O)c3c(=O)c4c(oc23)C(O)Oc2cc(OC)c(OC)cc2-4)O1 (stereo unspecified)
inactive: CAKI-1 > 10 µM | HCC 2998 > 10 µM | HL-60 > 10 µM | K562 > 10 µM | MDA-MB-231 > 10 µM | MDA-MB-435 > 10 µM | MDA-N > 10 µM | NCI-H226 6.97 µM | NCI-H23 > 10 µM | NCI/ADR-RES > 10 µM | OVCAR-4 > 10 µM | OVCAR-5 > 10 µM | SF-268 > 10 µM | SF-539 > 10 µM | SNB-19 > 10 µM | SR > 10 µM | UACC-257 > 10 µM | UO-31 > 10 µM

CC(=O)Nc1ccc(OC2=CCN(C)CC2)cc1
inactive: CAKI-1 > 100 µM | HCC 2998 > 100 µM | HL-60 > 100 µM | K562 > 100 µM | LOX IMVI > 100 µM | MDA-MB-231 > 100 µM | MDA-MB-435 > 100 µM | MDA-N > 100 µM | NCI-H226 > 100 µM | NCI-H23 > 100 µM | NCI/ADR-RES > 100 µM | OVCAR-4 > 100 µM | OVCAR-5 > 100 µM | SF-268 > 100 µM | SNB-19 > 100 µM | SNB-75 > 100 µM | SR > 100 µM | UACC-257 > 100 µM | UO-31 > 100 µM

O=C(C=P(c1ccccc1)(c1ccccc1)c1ccccc1)c1ccc(-c2cccc([N+](=O)[O-])c2)s1
inactive: CAKI-1 35.2 µM | HCC 2998 51.1 µM | HL-60 26 µM | K562 37 µM | LOX IMVI 67 µM | MDA-MB-231 > 100 µM | MDA-MB-435 51.5 µM | MDA-N 29.7 µM | NCI-H23 77.6 µM | NCI/ADR-RES 25.8 µM | OVCAR-4 31.3 µM | OVCAR-5 > 100 µM | SF-268 > 100 µM | SF-539 63.4 µM | SNB-19 > 100 µM | SNB-75 24 µM | SR 42.5 µM | UO-31 48.2 µM

CN(C)/C=[N+]1/[C@@H](Cc2ccccc2)C(=O)O[B-]1(F)c1ccccc1 (stereo partly specified)
inactive: HCC 2998 > 100 µM | HL-60 > 100 µM | K562 > 100 µM | LOX IMVI > 100 µM | MDA-MB-231 > 100 µM | MDA-MB-435 > 100 µM | MDA-N > 100 µM | NCI-H226 > 100 µM | NCI-H23 > 100 µM | NCI/ADR-RES > 100 µM | OVCAR-4 > 100 µM | OVCAR-5 > 100 µM | SF-268 > 100 µM | SNB-19 > 100 µM | SNB-75 > 100 µM | SR > 100 µM | UACC-257 > 100 µM | UO-31 > 100 µM

NS(=O)(=O)c1nnc(NC(=O)Nc2ccc(Cl)c(Cl)c2)s1
inactive: CAKI-1 25.9 µM | HCC 2998 18.7 µM | HL-60 28.8 µM | K562 31.3 µM | LOX IMVI 18.2 µM | MDA-MB-231 25.9 µM | MDA-MB-435 20.3 µM | MDA-N 20.5 µM | NCI-H226 23.2 µM | NCI-H23 18 µM | NCI/ADR-RES 21 µM | OVCAR-4 30.6 µM | OVCAR-5 24.5 µM | SF-268 24.7 µM | SF-539 19 µM | SNB-19 21 µM | SR 21.9 µM | UACC-257 16.5 µM | UO-31 27.4 µM
